Experimental data reported in publication PMC8041284, “Tunable Methacrylamides for Covalent Ligand Directed Release Chemistry” (Journal of the American Chemical Society, 2021).

biological target: BTK (Homo sapiens, UniProt Q06187); test: biochemical; details: read-out: BTK inhibition (%)
Sequence (Q06187 402-655 limits assumed): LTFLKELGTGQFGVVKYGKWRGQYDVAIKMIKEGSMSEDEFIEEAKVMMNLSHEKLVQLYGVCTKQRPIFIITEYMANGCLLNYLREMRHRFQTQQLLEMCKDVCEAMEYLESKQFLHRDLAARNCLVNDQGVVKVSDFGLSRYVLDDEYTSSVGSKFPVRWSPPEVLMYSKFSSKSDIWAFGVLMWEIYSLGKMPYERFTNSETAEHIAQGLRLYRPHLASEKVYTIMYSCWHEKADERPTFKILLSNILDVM

| SMILES | inhibition at 10 µM [%] |
| --- | --- |
| O=C(O)CNC(=O)C1C(=O)N(C2CCCCC2)C(=O)N(C2CCCCC2)C1=O [PCM-0215600] | 13.9 |
| Cc1ccc2c(c1)[C@]13CCCC[C@@H]1[C@H](C2)N(C)CC3 [PCM-0216574] | 12.8 |

same assay, conditions: read-out: BTK inhibition (%), 0.75 uM BTK, […] probe 3l, 15 min preincubation

| SMILES | inhibition at 10 µM [%] |
| --- | --- |
| CC1=C[C@H]2[C@@H](CC1)[C@H](C)CC[C@H]2[C@@H](C)C(=O)O [PCM-0216135] | -3.1 |
| Cc1oncc1C(=O)Nc1ccc(C(F)(F)F)cc1 [PCM-0065349] | -5.5 |
| O=S(=O)(O)Oc1ccc(C(c2ccc(OS(=O)(=O)O)cc2)c2ccccn2)cc1 [PCM-0095575] | -12.5 |
| O=C(/C=C/c1cccnc1)c1ccncc1 [PCM-0215906] | -6.9 |
| CNCC(=O)O [PCM-0215710] | -11.1 |
| O=C1c2ccccc2C(=O)c2c1ccc(O)c2O [PCM-0095289] | 49.8 |
| N#Cc1cccc(-c2c[nH]c3ncnc(N4CCOCC4)c23)c1 [PCM-0215613] | -8.3 |
| NCCOc1ccc(Cl)cc1C(=O)Nc1ccc([N+](=O)[O-])cc1Cl [PCM-0215860] | 7.7 |
| O=C(O)[C@H](O)[C@H](O)[C@@H](O)[C@H](O)[C@H](O)CO [PCM-0215251] | -28.9 |
| COC(c1ccccc1)(c1ccccc1)[C@H](Oc1nc(C)cc(C)n1)C(=O)O [PCM-0095259] | 10.9 |
| COCCCOc1ccnc(C[S+]([O-])c2nc3ccccc3[nH]2)c1C (stereo not drawn) [PCM-0214837] | -10.1 |
| COc1ccccc1Oc1c(NS(=O)(=O)c2ccc(C(C)(C)C)cc2)nc(-c2ncccn2)nc1OCCO [PCM-0086316] | -7.8 |
| C[C@@H]1COC(Nc2ccc3ncnc(Nc4ccc(OCc5nccs5)c(Cl)c4)c3c2)=N1 [PCM-0095513] | 17.2 |
| CN(C)[C@@H](CCOc1cccc2ccccc12)c1ccccc1 [PCM-0095178] | 6.2 |
| CCN(CCO)CCCOc1ccc2c(Nc3cc(CC(=O)Nc4cccc(F)c4)[nH]n3)ncnc2c1 [PCM-0094969] | 66.9 |
| CCC(C(=O)O)c1ccc(N2Cc3ccccc3C2=O)cc1 (stereo not drawn) [PCM-0215153] | -18.5 |
| COc1nc(OCc2cccc(-c3ccccc3)c2C)ccc1CNCCNC(C)=O [PCM-0215525] | -51.7 |
| OCc1ccccc1O[C@@H]1O[C@H](CO)[C@@H](O)[C@H](O)[C@H]1O [PCM-0086703] | -7.6 |
| O=C(Nc1cccc(Cl)c1)Nc1ncc(CCNc2ncnc3ccsc23)s1 [PCM-0094983] | 73.1 |
| O=c1cc(-c2ccc(O)c(O)c2O)oc2ccccc12 [PCM-0215990] | 34 |
| Nc1ncc(-c2ccnc(Nc3ccncc3)n2)c(CC2CC2)n1 [PCM-0215628] | 8.3 |
| COc1cc(/C=C/C(=O)CC(=O)/C=C/c2ccc(O)cc2)ccc1O [PCM-0216521] | 110 |
| CC(N)C12CC3CC(CC(C3)C1)C2 (stereo not drawn) [PCM-0012697] | 3.1 |
| O=C(O)c1ccccc1 [PCM-0090294] | -1.6 |
| CCCCOc1ccc(CC(=O)NO)cc1 [PCM-0085771] | 6.9 |
| CC1=C(C(=O)O)N2C(=O)[C@@H](NC(=O)[C@H](N)c3ccccc3)[C@H]2SC1 [PCM-0095179] | 4.3 |

| SMILES | inhibition at 10 µM [%] |
| --- | --- |
| Cc1c(Cn2c(C)nc3c(C(=O)O)cc(N4CCOCC4)cc32)cccc1C(F)(F)F [PCM-0095596] | -22.1 |
| CCOc1cc(C=O)ccc1OC(C)=O [PCM-0216281] | 4.6 |
| C[C@@H]1O[C@@H](O[C@@H]2[C@@H](O)[C@H](OCCc3ccc(O)c(O)c3)O[C@H](CO)[C@H]2OC(=O)/C=C/c2ccc(O)c(O)c2)[C@H](O)[C@H](O)[C@H]1O [PCM-0216174] | 15.9 |
| CC(C)c1ccc2c(c1O)CC[C@H]1C3=C(CC[C@]21C)C(=O)OC3 [PCM-0216350] | 0.8 |
| COc1ccc(-c2cc(=O)c3c(O)cc(O[C@@H]4O[C@H](CO[C@@H]5O[C@@H](C)[C@H](O)[C@@H](O)[C@H]5O)[C@@H](O)[C@H](O)[C@H]4O)cc3o2)cc1O [PCM-0087491] | -5.1 |
| CCOC(=O)O[C@]1(C(=O)OCCl)CC[C@H]2[C@@H]3CCC4=CC(=O)C=C[C@]4(C)[C@H]3[C@@H](O)C[C@@]21C [PCM-0095115] | 13.8 |
| CCCCOc1nc(N)c2c(n1)N(Cc1cccc(CN3CCCC3)c1)CC(=O)N2 [PCM-0215695] | 17 |
| CCOc1cc(N2CCC(O)CC2)ccc1Nc1ncc2c(n1)N(C)c1ccccc1C(=O)N2C [PCM-0095769] | -6.2 |
| O=c1ccoc2cc(O)ccc12 [PCM-0216563] | -2.8 |
| C=C1CCC[C@]2(C)C[C@]3(O)OC(=O)C(C)=C3C[C@@H]12 [PCM-0216544] | 6.9 |
| COCCCN1CCC(NC(=O)c2cc(Cl)c(N)c3c2OCC3)CC1 [PCM-0095543] | -16.3 |
| COc1ccc(-c2cc(=O)c3c(O)cc(O[C@@H]4O[C@H](CO)[C@@H](O)[C@H](O)[C@H]4O[C@@H]4O[C@@H](C)[C@H](O)[C@@H](O)[C@H]4O)cc3o2)cc1O [PCM-0216549] | 1.5 |
| C/C(=C(\CCOC(=O)c1ccccc1)SC(=O)c1ccccc1)N(C=O)Cc1cnc(C)nc1N [PCM-0216084] | 4.6 |
| O=C(O)c1ccc(Nc2ncc3c(n2)-c2ccc(Cl)cc2C(c2c(F)cccc2F)=NC3)cc1 [PCM-0095077] | 79.3 |
| COC1=CC(=O)c2ccccc2C1=O [PCM-0214886] | 85.6 |
| CO/N=C(\C(=O)N[C@@H]1C(=O)N2C(C(=O)O)=C(CSc3nnnn3C)CS[C@H]12)c1csc(N)n1 [PCM-0214827] | 8.6 |
| Cc1noc(-c2ccc(CSCCC(=O)O)cc2)c1NC(=O)OC(C)c1ccccc1Cl (stereo not drawn) [PCM-0094905] | -21 |
| O=C(NO)c1cnc(NC2(c3ccccc3)CC2)nc1 [PCM-0215891] | -10.8 |
| COCCNCc1ccc(-c2cc3nccc(Oc4ccc(NC(=O)C5(C(=O)Nc6ccc(F)cc6)CC5)cc4F)c3s2)nc1 [PCM-0215838] | 81.4 |
| Cc1ccc(S(=O)(=O)NC(=O)NN2CC3CCCC3C2)cc1 (stereo not drawn) [PCM-0086156] | -2.3 |
| COC(=O)N[C@H](C(=O)N1CC2(CC2)C[C@H]1c1ncc(-c2ccc3c(c2)C(F)(F)c2cc(-c4ccc5nc([C@@H]6[C@H]7CC[C@H](C7)N6C(=O)[C@@H](NC(=O)OC)C(C)C)[nH]c5c4)ccc2-3)[nH]1)C(C)C [PCM-0215396] | 74.9 |
| C[C@H](NC(=O)/C(C#N)=C/c1cccc(Br)n1)c1ccccc1 [PCM-0095390] | 12.4 |
| CC(C)c1c(-c2ccccc2)nc2c(C#N)c[nH]n2c1=O [PCM-0215735] | 24.7 |
| C[C@@H](O[C@H]1OCCN(Cc2nn(P(=O)(O)O)c(=O)[nH]2)[C@H]1c1ccc(F)cc1)c1cc(C(F)(F)F)cc(C(F)(F)F)c1 [PCM-0214804] | 10.1 |
| CC(C)[C@H](CO)Nc1nc(Nc2cccc(Cl)c2)c2ncn(C(C)C)c2n1 [PCM-0215464] | 50.3 |
| CSc1ccc(C(=O)/C=C/c2cc(C)c(OC(C)(C)C(=O)O)c(C)c2)cc1 [PCM-0214917] | 7 |

| SMILES | inhibition at 10 µM [%] |
| --- | --- |
| Cc1cc(-c2cc(C)c(NCCCS(=O)(=O)O)c(C)c2)cc(C)c1N [PCM-0216076] | 7.7 |
| O=C(NCc1ccc(Oc2ccccc2)cc1)c1nc(-c2cc(Br)c(O)c(Br)c2)no1 [PCM-0215261] | 94.2 |
| NCCOCCOCCNC(=O)Cc1ccc(Nc2nc(NCc3ccc(F)cc3)nc(NCC3CCCCC3)n2)cc1 [PCM-0215568] | -36.3 |
| COc1cc(O)c(CC=C(C)C)c2c1C(=O)CC(c1ccc(O)cc1)O2 (stereo not drawn) [PCM-0216367] | 8.5 |
| COc1ccc(-c2coc3cc(O[C@@H]4O[C@H](CO)[C@@H](O)[C@H](O)[C@H]4O)ccc3c2=O)cc1O [PCM-0216381] | -10 |
| CC[C@@H](C)Nc1cc(C(=O)NC2C[C@H]3CC[C@@H](C2)N3c2ccc(C(=O)C3CC3)cn2)c(C)cc1C(N)=O (stereo partly drawn) [PCM-0215196] | -0.8 |
| O=CN1CC/C(=C\c2ccc3c(c2)OCO3)C1=O [PCM-0215470] | 10.8 |
| Cc1cc(-c2ncc(CC(=O)Nc3ccc(-c4cnccn4)cn3)cc2C)ccn1 [PCM-0215274] | 1.5 |
| Nc1nc2n[nH]nc2c(=O)[nH]1 [PCM-0085758] | 4.7 |
| C[C@]12CC[C@@H]3c4ccc(O)cc4CC[C@H]3[C@@H]1CC[C@@H]2OC(=O)CCC1CCCC1 [PCM-0214748] | 0.8 |
| NC(=O)c1ccc[n+]([O-])c1 [PCM-0215057] | 5.4 |
| CC(C)(O/N=C(\C(=O)N[C@@H]1C(=O)N2C(C(=O)[O-])=C(C[n+]3ccccc3)CS[C@H]12)c1csc(N)n1)C(=O)O [PCM-0215253] | 6.8 |
| OC[C@H]1O[C@@H](c2ccc(F)c(Cc3cc4ccccc4s3)c2)[C@H](O)[C@@H](O)[C@@H]1O [PCM-0215870] | 1.5 |
| CN1CCN(Cc2ccc(NC(=O)Nc3ccc(Oc4ccnc(N)n4)cc3)cc2C(F)(F)F)CC1 [PCM-0215587] | 31 |
| O=c1oc2cc(O)ccc2s1 [PCM-0090709] | -13.2 |
| CC(=O)Nc1ccc(C(=O)Nc2ccccc2N)cc1 [PCM-0095432] | -17.1 |
| O=C(CCCCCN1C(=O)c2cccc3cccc(c23)C1=O)NO [PCM-0095631] | 7.7 |
| N=c1ccn2c(n1)O[C@H]1[C@H](O)[C@@H](CO)O[C@H]12 [PCM-0094879] | 6.2 |
| S=C(NCc1ccc2c(c1)OCO2)N1CCN(c2ncnc3c2oc2ccccc23)CC1 [PCM-0094997] | 28.3 |
| CCCCCCCCCCCCCCCCCCCC(=O)O [PCM-0216199] | 9.3 |
| O=C(/C=C\n1cnc(-c2cc(C(F)(F)F)cc(C(F)(F)F)c2)n1)NNc1cnccn1 [PCM-0095752] | 6.9 |
| CN[C@@H]1[C@@H](O)[C@@H](O[C@@H]2[C@@H](O)[C@H](O[C@H]3OC(CN)=CC[C@H]3N)[C@@H](N)C[C@H]2N)OC[C@]1(C)O [PCM-0215656] | 28.9 |
| NC(=O)c1cnc2[nH]ccc2c1NC1[C@@H]2CC3C[C@H]1CC(O)(C3)C2 (stereo partly drawn) [PCM-0215550] | 94.5 |
| CCc1ccc(OCc2ccccc2C(=O)Nc2ccc3nc(C)cc(N)c3c2)cc1 [PCM-0095441] | 33.5 |
